Experimental data taken from the METLIN SMRT retention time set (Domingo-Almenara et al. 2019).

Test: gradient 5% acetonitrile 3 min, to 50% in 2 min, to 85% in 15 min, held 3 min, 100 µL/min
Conditions: column: Zorbax Extend-C18 2.1 x 50 mm; eluents: water / acetonitrile, 0.1% formic acid
In short: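 A Zorbax Extend-C18 column (2.1 × 50 mm, 1.8 μm) run at 100 μL/min with water and acetonitrile, both containing 0.1% formic acid, separated mixtures of ~100 pure standards. The HPLC was coupled to a quadrupole time-of-flight mass spectrometer operated in positive and negative ionization mode, with dead and dwell volumes of 40 μL and 900 μL. Each retention time was taken from a computationally picked adduct peak that was then manually inspected.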

Row | RP-LC retention time [s] | Structure (SMILES)
1 | 891 | COc1ccc(CNC(=O)C2CN(S(=O)(=O)C3CC3)CC23CCCCC3)cc1 (centres undefined)
2 | 608 | O=C(c1c(F)cccc1F)N1CCN(c2nc(CN3CCOCC3)cs2)CC1
3 | 749 | CC1(C(=O)NC2CC2)CC(c2ccccc2)=NO1 (centres undefined)
4 | 997 | Cc1nnc(-c2ccc3ccn(CC(=O)N4CCN(c5cccc(C)c5C)CC4)c3c2)o1
5 | 845 | C[C@@H](Nc1cc(NS(=O)(=O)N2CCC2)nc(SCc2cccc(F)c2F)n1)[C@@H](O)CO
6 | 718 | Cc1ccc(NC(=O)N2CCCC(Cn3cnc4cccnc43)C2)cc1F (centres undefined)
7 | 1200 | Cc1sc(C)c(S(=O)(=O)NC2CCCCC2)c1-c1cc(C(F)(F)F)on1
8 | 910 | O=C(NCc1cccs1)C1CCN(S(=O)(=O)c2cc(-c3noc(C4CC4)n3)cs2)CC1
9 | 954 | CCCNC(=O)c1ccccc1OCc1nc(-c2ccccc2)no1
10 | 681 | CCCN1CCN(C(=O)c2cn(-c3ccc(-c4nc(C(C)(C)C)no4)cn3)cn2)CC1
11 | 547 | Oc1cccc2ccc(N3CCOCC3)nc12
12 | 801 | CNC(=O)NC1CCN(c2nc3cccnc3n(Cc3ccccc3)c2=O)CC1
13 | 692 | CC1CCN(C(=O)c2ccc3c(c2)CC(=O)N3C)CC1
14 | 795 | O=C1CC(C(F)(F)F)c2c(c(C(=O)O)cn2-c2cccc(Br)c2)N1 (centres undefined)
15 | 949 | CCc1noc(C2(NC(=O)c3cccc(F)c3)CCCCC2)n1
16 | 903 | CCOc1ccc(C(=O)NC2(c3nc(C)no3)CCCCC2)cc1OCC
17 | 789 | Cc1nc(-c2noc(-c3ccccc3)n2)cn1CC(=O)NCc1cccs1
18 | 840 | O=C(c1ccc2c(c1)OCO2)N1CCC2(CC1)NC(=O)N(Cc1cccc(Cl)c1)C2=O
19 | 1310 | CCn1c(C(=O)NCCC2=CCCCC2)cc2sc(Cl)cc21
20 | 909 | O=C(NCc1nc(-c2ccc(NS(=O)(=O)c3ccc(Cl)cc3)cc2)no1)c1cccs1
21 | 783 | Cc1cc(NS(=O)(=O)c2cc(-c3[nH]ncc3C(=O)N3CCCCC3)oc2C)ccc1F
22 | 1140 | Cc1cc(C(=O)Nc2nc(-c3cccc(Cl)c3)c(C)s2)no1
23 | 669 | CNC(=O)c1noc([C@@H]2CC(F)(F)CN2C(=O)C2CCC2)n1

Row | RP-LC retention time [s] | Structure (SMILES)
24 | 867 | CCc1noc(C2(NC(=O)c3cccc(N(C)C)c3)CCCCC2)n1
25 | 765 | CCC(C)C(NC(=O)c1ccc(C)cc1)C(=O)Nc1nc2ccccc2[nH]1 (centres undefined)
26 | 870 | O=C(c1ccc(F)cc1)N1CCC(CCNS(=O)(=O)c2cc(F)ccc2F)CC1
27 | 670 | O=C(NCC1CCOCC1)Nc1ccc(F)cc1
28 | 655 | COc1ccc2c(=O)c(C(=O)c3ccncc3)cn(CC(=O)NC3CCCCC3)c2c1
29 | 704 | Cc1sc2cc(C(=O)N3CCN(c4ccccc4F)CC3)[nH]c2c1CN1CCOCC1
30 | 950 | Cc1ccc(S(=O)(=O)N2CCC(C(=O)NCc3csc(-c4cccs4)n3)CC2)cc1C
31 | 852 | COc1ccc(NC(=O)C2CN(S(C)(=O)=O)CC23CCCCC3)cc1 (centres undefined)
32 | 817 | CS(=O)(=O)N1CCC(C(=O)Nc2ccc(F)cc2)Oc2ccccc21 (centres undefined)
33 | 1090 | CC(C)c1cccc(NC(=O)Cn2nc(N3CCCC3)c3ccccc3c2=O)c1
34 | 832 | O=C(NCCc1csc(-c2cccc(F)c2)n1)C1CCCC1
35 | 1190 | CC(=O)c1cccc(NC(=O)COc2ccccc2-c2nnc(-c3ccccc3)o2)c1
36 | 733 | CCC(C)C(=O)N1CCN(c2ncccc2-c2nnc(C3CC3)o2)CC1 (centres undefined)
37 | 820 | O=C(NC1CC1)c1ccc(OCC2CCCN(C(=O)c3ccc(F)c(F)c3)C2)cc1 (centres undefined)
38 | 711 | CCOCC(=O)N1CCCN(C2=NS(=O)(=O)C(c3ccc(F)cc3)=C2C)CC1
39 | 575 | CCC1(O)CCOC2(CCN(Cc3ccc(OC)c(C)c3)CC2)C1 (centres undefined)
40 | 787 | CCCn1cnc2cc(-c3noc(COc4ccc(F)cc4)n3)ccc21
41 | 1170 | CCc1ccc(-n2ncc3c(=O)n(Cc4nc(-c5ccc(F)cc5)no4)cnc32)cc1
42 | 613 | CCc1cc(=O)n(CC(=O)Nc2cccc(F)c2)c(N)n1
43 | 783 | CC(=O)N(Cc1nn(C)c2c1CN(S(=O)(=O)c1cccc(Cl)c1)CC2)c1ccccc1
44 | 675 | CN(CCNC(=O)C1=Cc2ccccc2OC1)C1CCCCC1
45 | 693 | COc1cccc(NS(=O)(=O)c2cc(-c3[nH]ncc3C(=O)N3CCCC3)oc2C)c1

Further lines, the compound ahead of its results:

Row | Structure (SMILES) | RP-LC retention time [s]
46 | Cc1ccc(CNc2c(-c3ccc(Cl)cc3)nc3ncccn23)cc1 | 867
47 | Cc1c(-c2ccnc(N3CCC(C)CC3)n2)cnc2nc(-c3ccccc3)nn12 | 1320
48 | O=C(NCCC1CCN(S(=O)(=O)c2ccccc2)CC1)NC1CCCCC1 | 865
49 | Cc1ccc(CNC(=O)C2(C)CN(S(C)(=O)=O)CC(=O)N2c2ccc(F)cc2C)cc1 (centres undefined) | 790
50 | Cc1noc(-c2ccc(OC3CN(S(=O)(=O)c4c(C)nn(C)c4C)C3)cc2)n1 | 807
51 | Cc1ccc(N2C(=O)CN(S(=O)(=O)c3ccccc3)CC2(C)C(=O)NC2CCCC2)c(C)c1 (centres undefined) | 983
52 | COc1ccc(OC)c(NS(=O)(=O)c2cc3c4c(c2)CCC(=O)N4CCC3)c1 | 804
53 | CSc1ccc(-c2nc3cnccn3c2Nc2ccc(F)cc2)cc1 | 927
54 | COc1ccc2[nH]cc(CCNC(=O)c3cc4n(n3)CCCN(Cc3ccc(F)cc3)C4=O)c2c1 | 852
55 | Cn1c2c(c3ccccc31)C(C(=O)NCc1ccc(F)cc1)N(Cc1cccnc1)C(=O)CS2 (centres undefined) | 703
56 | CC(=O)Nc1cc(C(=O)NC(C)c2ccccc2)c2ccc(C)nc2c1 (centres undefined) | 1030
57 | CC1Cc2ccccc2N1C(=O)C1CCN(C(=O)c2cc(-c3ccncc3)n[nH]2)CC1 (centres undefined) | 645
58 | CCn1c(=O)c2cc(C(=O)NCc3ccccc3C(F)(F)F)nn2c2ccccc21 | 1000
59 | CC(C)n1c(=O)oc2cc(-c3noc(-c4cccc5[nH]ccc45)n3)ccc21 | 1080
60 | Fc1ccc(-c2ccc(CNc3ncn[nH]3)o2)cc1Cl | 692
61 | CN(C)C(=O)Cn1c(=O)c2cccn2c2ccccc21 | 666
62 | COc1ccc(CN2C[C@@H](CO)[C@H](c3ccncc3)C2)cc1C | 542
63 | CC[C@H](NC(=O)c1c(C)c(-c2ccccc2)nc2ccccc12)c1ccccc1 | 1060
64 | Cc1ccc(-c2noc(Cn3c(=O)n(C(C)C)c(=O)c4ccccc43)n2)cc1 | 1150
65 | COc1c(C)cc(S(=O)(=O)NC2CC(C)(C)NC(C)(C)C2)cc1C | 575
66 | CC(=O)c1ccc(NC(=O)N(C)C)cc1 | 588
67 | Cc1nc(-c2cnccn2)nc2c1CCC(=O)N2Cc1ccncc1 | 510

Row | Structure (SMILES) | RP-LC retention time [s]
68 | Cc1cc(N2CCOCC2)nc(N2CCN(S(=O)(=O)c3cc(C(C)C)ccc3C)CC2)n1 | 803
69 | CCCC(C)C(=O)NCCc1nc2cccnc2n1C (centres undefined) | 593
70 | Cc1nn(C)cc1S(=O)(=O)N1CCN(C(=O)c2ccco2)CC1 | 626
71 | CCN1C(=O)c2cc(S(=O)(=O)NCc3ccccc3)ccc2Oc2cccnc21 | 986
72 | COc1ccc(NC(=O)Cn2cnc3nc(N4CCCC(C(=O)NC5CC5)C4)sc3c2=O)cc1 (centres undefined) | 681
73 | CCC(C)CC(=O)N1CCCN(C2=NS(=O)(=O)C(c3ccc(C(C)C)cc3)=C2C)CC1 (centres undefined) | 1000
74 | Cc1ccc(-n2nc(N3CCN(C(=O)CC(C)C)CC3)ccc2=O)cc1C | 831
75 | CCN1CCN(S(=O)(=O)c2cc(-c3nnc(C4CC4)o3)co2)CC1 | 587
76 | CN(C)C[C@@H]1CN(c2ncccn2)C[C@H]1NS(=O)(=O)c1cccc(C#N)c1 | 601
77 | CCCN1CCN(c2ncc3c(n2)CCN(Cc2ccc(CC)cc2)C3)CC1 | 496
78 | COC(=O)C(C)NC(=O)N1CCCN(C2=NS(=O)(=O)C(c3ccc(C)cc3)=C2C)CC1 (centres undefined) | 736
79 | CC(=O)[C@H]1CC[C@H]2[C@@H]3CCC4=CC(=O)C=C[C@]4(C)[C@H]3C(=O)C[C@]12C | 921
80 | Cc1[nH]c(/C=C2\C(=O)Nc3ccccc32)c(C)c1CCC(=O)O | 820
81 | CCn1cc(C)c(C(=O)O)c1CC(=O)NCCN1CCN(C)CC1 | 561
82 | O=C(NCc1cccnc1)C1CCN(c2ncnc3c2oc2ccccc23)CC1 | 583
83 | O=C1CCC(NC(=O)OCc2ccccc2)(C(=O)OCc2ccccc2)O1 (centres undefined) | 830
84 | c1cnn(-c2cc(N3CCSCC3)ncn2)c1 | 833
85 | O=c1oc2cc(O)c(O)cc2c2c1CCCC2 | 684
86 | Cc1ccc(Nc2nc(C)cc(N3CCN(S(=O)(=O)c4c(C)cc(C)cc4C)CC3)n2)cc1 | 917
87 | CCOc1ccc(S(=O)(=O)N2CCCC(C(=O)Nc3ccc(OC)cc3OC)C2)cc1C (centres undefined) | 1070
88 | COc1ccccc1NC(=O)Nc1ccc2c(c1)N(S(=O)(=O)c1cccs1)CCC2 | 967
89 | CC(=O)N1CCCSc2ccc(S(=O)(=O)N3CCCC(CN4CCc5ccccc5C4)C3)cc21 (centres undefined) | 687
